We go through 19 molecules from patent US20240132525A1, “BORON […], CO[…], METHODS AND USES THEREOF” (priority 2022, published 2024).

Each structure is given as a SMILES string. Where a name gives a salt, the structure may show the parent alone. Read-outs that look alike come from different tables or passages of the source.

One data set concerns the target JAK1 (Homo sapiens (Human), UniProt P23458). The data set can be described thus: Biochemical kinase assay (33P-ATP filter-binding), JAK1. The text has this: (§1) Biochemical Kinase Assay Protocol (JAK)
(§2) Reaction Procedure: • 1. […] Detected kinase activity by filter-binding method.

For the next data set, the target named is JAK2 (Homo sapiens (Human), UniProt O60674). As to the kind of experiment: Biochemical kinase assay (33P-ATP filter-binding), JAK2.
Excerpt: as §1, §2

Data set [1] in a line: Dog LM (liver microsome) assay. The class given is in vitro ADME. The settings on record: Table 3a; predicted clearance as percent of liver blood flow, 1 μM, 1 mg/ml microsomal protein. As to the method:
Dog LM (Liver Microsome) Assay
The metabolic degradation of the test compound is assayed at 37° C. with pooled liver microsomes from dogs (Beagle). The final incubation volume of 100 μl per time point contains TRIS buffer pH 7.6 at RT (0.1 M), magnesium chloride (5 mM), microsomal protein (1 mg/ml) and the test compound at a final concentration of 1 μM. Following a short preincubation period at 37° C., the reactions were initiated by addition of beta-nicotinamide adenine dinucleotide phosphate, reduced form (NADPH, 1 mM) and terminated by transferring an aliquot into solvent after different time points. Additionally, the NADPH-independent degradation was monitored in incubations without NADPH, terminated at the last time point. The [%] remaining test compound after NADPH independent incubation is reflected by the parameter c (control) (metabolic stability). The quenched incubations are pelleted by centrifugation (10000 g, 5 min). An aliquot of the supernatant is assayed by LC-MS/MS for the amount of parent compound. The half-life (t½ INVITRO) is determined by the slope of the semilogarithmic plot of the concentration-time profile. The intrinsic clearance (CL_[…]) is calculated by considering the amount of protein in the incubation: CL_[…] [μl/min/mg protein]=(Ln 2/(half-life [min]*protein content [mg/ml]))*1000. For better across species comparison the predicted clearance is expressed as percent of the liver blood flow [% QH] in the individual species. In general, high stability (corresponding to low % QH) of the compounds across species is desired.

Sequence of JAK2 (O60674 whole entry, species assumed): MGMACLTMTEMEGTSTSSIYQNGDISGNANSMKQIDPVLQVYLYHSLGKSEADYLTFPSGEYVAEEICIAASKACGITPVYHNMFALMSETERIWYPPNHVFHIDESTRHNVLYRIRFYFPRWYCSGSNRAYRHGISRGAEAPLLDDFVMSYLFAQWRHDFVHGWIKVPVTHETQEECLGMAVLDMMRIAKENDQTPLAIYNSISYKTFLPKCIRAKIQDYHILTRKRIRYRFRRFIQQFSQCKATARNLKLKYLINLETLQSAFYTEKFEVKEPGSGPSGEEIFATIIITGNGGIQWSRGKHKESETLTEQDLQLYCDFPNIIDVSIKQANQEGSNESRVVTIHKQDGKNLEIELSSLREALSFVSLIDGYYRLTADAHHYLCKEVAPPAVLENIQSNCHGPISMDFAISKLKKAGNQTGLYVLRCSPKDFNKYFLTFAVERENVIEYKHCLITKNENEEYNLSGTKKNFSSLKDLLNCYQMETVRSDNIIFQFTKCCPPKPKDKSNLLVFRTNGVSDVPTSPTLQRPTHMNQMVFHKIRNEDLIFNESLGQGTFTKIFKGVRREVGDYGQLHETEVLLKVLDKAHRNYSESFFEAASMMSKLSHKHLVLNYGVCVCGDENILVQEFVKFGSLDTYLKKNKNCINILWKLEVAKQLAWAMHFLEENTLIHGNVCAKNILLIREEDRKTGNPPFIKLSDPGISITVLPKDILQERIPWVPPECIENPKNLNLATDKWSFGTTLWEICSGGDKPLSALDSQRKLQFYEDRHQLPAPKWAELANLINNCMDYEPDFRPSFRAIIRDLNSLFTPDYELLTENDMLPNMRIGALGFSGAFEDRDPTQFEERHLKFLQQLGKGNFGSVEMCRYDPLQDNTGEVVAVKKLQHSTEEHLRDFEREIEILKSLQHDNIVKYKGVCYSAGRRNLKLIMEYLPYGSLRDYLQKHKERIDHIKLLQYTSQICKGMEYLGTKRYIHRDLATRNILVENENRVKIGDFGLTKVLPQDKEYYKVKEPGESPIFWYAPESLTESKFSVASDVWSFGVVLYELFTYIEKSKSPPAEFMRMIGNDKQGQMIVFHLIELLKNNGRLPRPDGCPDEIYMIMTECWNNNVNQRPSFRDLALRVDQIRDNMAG
Sequence of JAK1 (P23458 whole entry, species assumed): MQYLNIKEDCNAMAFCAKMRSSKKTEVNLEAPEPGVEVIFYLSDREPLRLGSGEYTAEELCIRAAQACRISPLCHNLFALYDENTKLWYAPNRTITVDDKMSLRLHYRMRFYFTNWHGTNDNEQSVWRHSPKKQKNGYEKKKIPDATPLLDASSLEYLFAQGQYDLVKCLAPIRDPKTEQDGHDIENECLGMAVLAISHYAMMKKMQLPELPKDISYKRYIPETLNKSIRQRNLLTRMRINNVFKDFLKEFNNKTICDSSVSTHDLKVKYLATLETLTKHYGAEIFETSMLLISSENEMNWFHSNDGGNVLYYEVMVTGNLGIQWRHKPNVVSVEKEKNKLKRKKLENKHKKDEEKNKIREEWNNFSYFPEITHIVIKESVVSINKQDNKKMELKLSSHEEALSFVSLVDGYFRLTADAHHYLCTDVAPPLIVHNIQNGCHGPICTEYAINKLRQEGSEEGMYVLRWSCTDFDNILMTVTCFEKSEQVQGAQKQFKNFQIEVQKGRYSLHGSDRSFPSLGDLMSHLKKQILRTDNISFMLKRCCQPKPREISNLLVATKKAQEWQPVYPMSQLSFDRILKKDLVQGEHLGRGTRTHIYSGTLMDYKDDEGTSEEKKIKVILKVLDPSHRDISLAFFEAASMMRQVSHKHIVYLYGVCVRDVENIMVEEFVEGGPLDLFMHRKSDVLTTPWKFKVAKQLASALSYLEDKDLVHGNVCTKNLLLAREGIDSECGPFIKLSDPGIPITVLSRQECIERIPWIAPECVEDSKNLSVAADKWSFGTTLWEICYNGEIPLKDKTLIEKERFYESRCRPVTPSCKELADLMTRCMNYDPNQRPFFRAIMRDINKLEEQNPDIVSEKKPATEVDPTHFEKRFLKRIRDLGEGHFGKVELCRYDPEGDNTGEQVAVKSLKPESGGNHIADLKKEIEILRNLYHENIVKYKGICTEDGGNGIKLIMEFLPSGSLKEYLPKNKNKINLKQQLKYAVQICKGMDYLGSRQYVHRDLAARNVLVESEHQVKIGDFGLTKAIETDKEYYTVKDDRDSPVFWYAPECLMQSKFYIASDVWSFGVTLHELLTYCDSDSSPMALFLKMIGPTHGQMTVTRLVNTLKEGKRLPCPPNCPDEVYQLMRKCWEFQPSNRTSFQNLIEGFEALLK

A word on the IC50: it is the concentration that gives 50% inhibition. Turning to `Cc1cnc(Nc2cc3c(c(C4CC4)c2)B(O)OC3)nc1N[C@@H]1COCC[C@H]1C#N` (relative stereo) [Example 025, (trans)-3-[[2-[(7-cyclopropyl-1-hydroxy-3H-2,1-benzoxaborol-5-yl)amino]-5-methyl-pyrimidin-4-yl]amino]tetrahydropyran-4-carbonitrile], the IC50 at JAK1 (Table 3a, read-out: IC50 JAK1) was found to be 0.4 nM; at JAK2 (Table 3a, read-out: IC50 JAK2) it was 24.2 nM. In addition, the “Dog LM QH” value in data set [1] was less than 19.9%.

In the case of `COc1cc(Nc2ncc(C)c(N[C@H]3COCC[C@@H]3C#N)n2)cc2c1B(O)OC2` (single isomer, unassigned) [Example 044a, (trans)-3-((2-((1-hydroxy-7-methoxy-1,3-dihydrobenzo[c][1,2]oxaborol-5-yl)amino)-5-methylpyrimidin-4-yl)amino)tetrahydro-2H-pyran-4-carbonitrile], the 50% inhibitory concentration (IC50) was found to be 0.2 nM at JAK1 (Table 3a, read-out: IC50 JAK1) and 0.8 nM on JAK2 (Table 3a, read-out: IC50 JAK2). In addition, the “Dog LM QH” value in data set [1] is 34.9%.

Regarding `Cc1cnc(Nc2cc(F)c3c(c2)C=CB(O)O3)nc1N[C@@H]1COCC[C@H]1C#N` (single isomer, unassigned) [Example 036b, (trans)-3-((2-((8-fluoro-2-hydroxy-2H-benzo[e][1,2]oxaborinin-6-yl)amino)-5-methylpyrimidin-4-yl)amino)tetrahydro-2H-pyran-4-carbonitrile], the IC50 on JAK1 (Table 3a, read-out: IC50 JAK1) is 8.2 nM; on JAK2 (Table 3a, read-out: IC50 JAK2), 102 nM. For the same molecule, the “Dog LM QH” value in data set [1] was 37.3%.

Consider `Cc1cnc(Nc2cc3c(c(C(F)(F)F)c2)B(O)OC3)nc1N[C@@H]1COCC[C@H]1C#N` (single isomer, unassigned) [Example 033b, (trans)-3-[[2-[[1-hydroxy-7-(trifluoromethyl)-3H-2,1-benzoxaborol-5-yl]amino]-5-methyl-pyrimidin-4-yl]amino]tetrahydropyran-4-carbonitrile], for which the half-inhibitory concentration (IC50) at JAK1 (Table 3a, read-out: IC50 JAK1) was found to be 16.3 nM; on JAK2 (Table 3a, read-out: IC50 JAK2), 389 nM. In addition, the “Dog LM QH” value in data set [1] is given as 64.9%.

For `Cc1cnc(Nc2ccc3c(c2)OB(O)C=C3)nc1N[C@@H]1COCC[C@H]1C#N` (relative stereo) [Example 034, (trans)-3-[[2-[(2-hydroxy-1,2-benzoxaborinin-7-yl)amino]-5-methyl-pyrimidin-4-yl]amino]tetrahydropyran-4-carbonitrile], the concentration for half-maximal inhibition (IC50) came to 1.1 nM on JAK1 (Table 3a, read-out: IC50 JAK1) and 33.7 nM on JAK2 (Table 3a, read-out: IC50 JAK2). The “Dog LM QH” value in data set [1] is listed as 74.7%.

As to `Cc1cnc(Nc2ccc3c(c2)C(C)(C)OB3O)nc1N[C@@H]1CCCC[C@H]1C#N` (relative stereo) [Example 014, (trans)-2-[[2-[(1-hydroxy-3,3-dimethyl-2,1-benzoxaborol-5-yl)amino]-5-methylpyrimidin-4-yl]amino]cyclohexanecarbonitrile hydrochloride], the half-maximal inhibitory concentration (IC50) stood at 1.4 nM on JAK1 (Table 3a, read-out: IC50 JAK1) and 6.3 nM at JAK2 (Table 3a, read-out: IC50 JAK2). For the same molecule, the “Dog LM QH” value in data set [1] was 48.7%.

Turning to `CC1=Cc2cc(Nc3ncc(C)c(NC4COCCC4C#N)n3)ccc2OB1O` (stereo not drawn) [Example 038, 3-[[2-[(2-hydroxy-3-methyl-1,2-benzoxaborinin-6-yl)amino]-5-methyl-pyrimidin-4-yl]amino]tetrahydropyran-4-carbonitrile], the IC50 at JAK1 (Table 3a, read-out: IC50 JAK1) came out at 1.4 nM; at JAK2 (Table 3a, read-out: IC50 JAK2), 23.7 nM. The “Dog LM QH” value in data set [1] is given as 50.4%.

In the case of `CC1=Cc2cc(Nc3ncc(C)c(N[C@@H]4CCCC[C@H]4C#N)n3)ccc2OB1O` (relative stereo) [Example 016, (trans)-2-((2-((2-hydroxy-3-methyl-2H-benzo[e][1,2]oxaborinin-6-yl)amino)-5-methylpyrimidin-4-yl)amino)cyclohexane-1-carbonitrile], the half-inhibitory concentration (IC50) at JAK1 (Table 3a, read-out: IC50 JAK1) amounted to 2.5 nM; on JAK2 (Table 3a, read-out: IC50 JAK2) it was 17.5 nM. The “Dog LM QH” value in data set [1] is recorded as 70.2%.

Consider `Cc1cnc(Nc2cc(C#N)c3c(c2)COB3O)nc1N[C@H]1CCCC[C@@H]1C#N` (single isomer, unassigned) [Example 012a, 5-((4-(((trans)-2-cyanocyclohexyl)amino)-5-methylpyrimidin-2-yl)amino)-1-hydroxy-1,3-dihydrobenzo[c][1,2]oxaborole-7-carbonitrile], for which the IC50 is 0.6 nM on JAK1 (Table 3a, read-out: IC50 JAK1) and 2.4 nM at JAK2 (Table 3a, read-out: IC50 JAK2). Further, the “Dog LM QH” value in data set [1] is listed as less than 19.9%.

Regarding `COc1cc(Nc2ncc(C)c(N[C@H]3COCC[C@@H]3C#N)n2)cc2c1B(O)OC2` (single isomer, unassigned) [Example 044b, (trans)-3-((2-((1-hydroxy-7-methoxy-1,3-dihydrobenzo[c][1,2]oxaborol-5-yl)amino)-5-methylpyrimidin-4-yl)amino)tetrahydro-2H-pyran-4-carbonitrile], the IC50 on JAK1 (Table 3a, read-out: IC50 JAK1) was found to be 33.8 nM; on JAK2 (Table 3a, read-out: IC50 JAK2), 96.8 nM. In addition, the “Dog LM QH” value in data set [1] is less than 19.9%.

In the case of `Cc1cnc(Nc2ccc3c(c2)COB3O)nc1N[C@@H]1COCC[C@H]1C#N` (single isomer, unassigned) [Example 026b, (trans)-3-((2-((1-hydroxy-1,3-dihydrobenzo[c][1,2]oxaborol-5-yl)amino)-5-methylpyrimidin-4-yl)amino)tetrahydro-2H-pyran-4-carbonitrile], the IC50 on JAK1 (Table 3a, read-out: IC50 JAK1) amounted to 47.1 nM; on JAK2 (Table 3a, read-out: IC50 JAK2), 95.3 nM. Further, the “Dog LM QH” value in data set [1] is less than 19.9%.

Take `Cc1cnc(Nc2cc(C#N)c3c(c2)COB3O)nc1N[C@H]1CCCC[C@@H]1C#N` (single isomer, unassigned) [Example 012b, 5-((4-(((trans)-2-cyanocyclohexyl)amino)-5-methylpyrimidin-2-yl)amino)-1-hydroxy-1,3-dihydrobenzo[c][1,2]oxaborole-7-carbonitrile]: the half-inhibitory concentration (IC50) on JAK1 (Table 3a, read-out: IC50 JAK1) came to 8.2 nM; at JAK2 (Table 3a, read-out: IC50 JAK2), 126 nM. The “Dog LM QH” value in data set [1] was less than 19.9%.

With `Cc1cnc(Nc2ccc3c(c2)C(C(C)C)=CB(O)O3)nc1N[C@H]1COCC[C@@H]1C#N` (single isomer, unassigned) [Example 039b, (trans)-3-((2-((2-hydroxy-4-isopropyl-2H-benzo[e][1,2]oxaborinin-6-yl)amino)-5-methylpyrimidin-4-yl)amino)tetrahydro-2H-pyran-4-carbonitrile], the IC50 at JAK1 (Table 3a, read-out: IC50 JAK1) amounted to 216 nM; at JAK2 (Table 3a, read-out: IC50 JAK2) it was 2040 nM. Also, the “Dog LM QH” value in data set [1] is recorded as 72.1%.

As to `N#C[C@H]1CCOC[C@@H]1Nc1nc(Nc2cc3c(c(C(F)(F)F)c2)B(O)OC3)ncc1Cl` (single isomer, unassigned) [Example 042b, (trans)-3-((5-chloro-2-((1-hydroxy-7-(trifluoromethyl)-1,3-dihydrobenzo[c][1,2]oxaborol-5-yl)amino)pyrimidin-4-yl)amino)tetrahydro-2H-pyran-4-carbonitrile], the half-maximal inhibitory concentration (IC50) is 98.2 nM at JAK1 (Table 3a, read-out: IC50 JAK1) and 690 nM on JAK2 (Table 3a, read-out: IC50 JAK2). For the same molecule, the “Dog LM QH” value in data set [1] is listed as less than 19.9%.

With `Cc1cnc(Nc2cc(C#N)c3c(c2)COB3O)nc1N[C@@H]1CCC[C@H]1C#N` (relative stereo) [Example 018, 5-((4-(((trans)-2-cyanocyclopentyl)amino)-5-methylpyrimidin-2-yl)amino)-1-hydroxy-1,3-dihydrobenzo[c][1,2]oxaborole-7-carbonitrile], the IC50 at JAK1 (Table 3a, read-out: IC50 JAK1) was 0.5 nM; on JAK2 (Table 3a, read-out: IC50 JAK2) it was 10.4 nM. Besides, in data set [1], the “Dog LM QH” value is recorded as less than 19.9%.

As for `Cc1cnc(Nc2cc3c(c(C(F)(F)F)c2)B(O)OC3)nc1N[C@H]1CCCC[C@@H]1C#N` (single isomer, unassigned) [Example 011b, (trans)-2-((2-((1-hydroxy-7-(trifluoromethyl)-1,3-dihydrobenzo[c][1,2]oxaborol-5-yl)amino)-5-methylpyrimidin-4-yl)amino)cyclohexane-1-carbonitrile], the IC50 at JAK1 (Table 3a, read-out: IC50 JAK1) is 10 nM; at JAK2 (Table 3a, read-out: IC50 JAK2), 197 nM. Moreover, the “Dog LM QH” value in data set [1] is listed as less than 19.9%.

Take `Cc1cnc(Nc2cc(F)c3c(c2)COB3O)nc1N[C@@H]1COCC[C@H]1C#N` (single isomer, unassigned) [Example 029b, (trans)-3-[[2-[(7-fluoro-1-hydroxy-3H-2,1-benzoxaborol-5-yl)amino]-5-methyl-pyrimidin-4-yl]amino]tetrahydropyran-4-carbonitrile]: the concentration for half-maximal inhibition (IC50) on JAK1 (Table 3a, read-out: IC50 JAK1) stood at 4 nM; at JAK2 (Table 3a, read-out: IC50 JAK2), 89.8 nM. In addition, the “Dog LM QH” value in data set [1] is listed as less than 19.9%.

Take `Cc1cc(Nc2ncc(Cl)c(N[C@H]3COCC[C@@H]3C#N)n2)cc2c1B(O)OC2` (single isomer, unassigned) [Example 041b, (trans)-3-[[5-chloro-2-[(1-hydroxy-7-methyl-3H-2,1-benzoxaborol-5-yl)amino]pyrimidin-4-yl]amino]tetrahydropyran-4-carbonitrile]: the IC50 at JAK1 (IC50 JAK1, Table 3a) worked out at 36.2 nM; on JAK2 (IC50 JAK2, Table 3a) it was 134 nM. Moreover, the “Dog LM QH” value in data set [1] was less than 19.9%.

With `Cc1cnc(Nc2cc(C)c3c(c2)COB3O)nc1N[C@@H]1CCCC[C@H]1C#N` (relative stereo) [Example 009, (trans)-2-((2-((1-hydroxy-7-methyl-1,3-dihydrobenzo[c][1,2]oxaborol-5-yl)amino)-5-methylpyrimidin-4-yl)amino)cyclohexane-1-carbonitrile], the IC50 at JAK1 (Table 3a, read-out: IC50 JAK1) amounted to 1.1 nM; at JAK2 (Table 3a, read-out: IC50 JAK2), 13.8 nM. Moreover, the “Dog LM QH” value in data set [1] was less than 19.9%.
